# How the values were obtained:
# [1] = tested on: Schwann cells; experiment: Schwann cell migration, microchannel-based migration assay (live cell imaging); settings: left reservoir 4 mg/L folate, right reservoir 50 mg/L folate; channel width 200 μm
# [2] = tested on: Schwann cells; experiment: Schwann cell migration, transwell model; type: cell-based; settings: 4 hr migration, compared to 4, 100 and 200 mg/L folate
# [3] = tested on: PC-12 cells; experiment: PC12 cell neurite outgrowth assay; type: cell-based, rat
# [4] = tested on: MAP-2 protein expression in PC12 cells; experiment: Western blot analysis of microtubule-associated protein-2 (MAP-2) in PC12 cells; type: cell-based, rat; settings: 14 days
# [5] = tested on: Schwann cells; experiment: Quantification of global DNA methylation; type: cell-based; settings: second day of culture
# [6] = tested on: PC12 cells; experiment: Quantification of global DNA methylation; type: cell-based, rat; settings: second day of culture
compound,measurement,setting,value
Nc1nc2ncc(CNc3ccc(C(=O)N[C@@H](CCC(=O)O)C(=O)O)cc3)nc2c(=O)[nH]1 [folic acid],Schwann cell migration direction in microchannels,[1],migration of Schwann cell from low folate medium to high folate medium
same,folate concentration of medium toward which the highest number of Schwann cells migrated,[2],50 mg/L
same,neurite outgrowth (average neurite length),"[3]; 50-100 mg/L folate with 50 ng/mL NGF, day 7, control medium 1.3 mg/L folate <100 μm",> 150 μm
same,folic acid concentration with highest neurite outgrowth,"[3]; day 3 of culture, neural differentiation medium with 5 ng/ml neural growth factor",50 mg/L
same,PC-12 neurite outgrowth rate,[3]; folic acid supplemented medium,promote PC-12 neurite outgrowth rate in a dose-dependent manner
same,optimal folic acid supplement concentration for promoting PC-12 differentiation and neurite outgrowth,[3]; within the concentrations investigated,50 to 100 mg/L
same,MAP-2 protein expression relative to control medium (1.3 mg/L folate),"[4]; 50 mg/L folate, in the presence of NGF (50 ng/mL)",2.56 folds
same,MAP-2 protein expression relative to control sample (1.3 mg/L folate),"[4]; 50 and 100 mg/L folate, in the absence of NGF",2.22-2.30 folds
same,folate concentration with highest global DNA methylation,[5],50 mg/L
same,folate concentration with highest global DNA methylation,[6],50 mg/L
